# Tested on: T cells isolated from mouse spleen
# Experiment: T cell proliferation inhibition, CFSE flow cytometry, CD3/CD28 activation
# Type: cell-based
# Details: CD3/CD28 activated, 3 days
# Protocol: To verify the T cell proliferation inhibitory effect of the compounds according to the present invention, the following experiment was performed based on flow cytometry analysis using carboxyfluorescein diacetate succinimidyl ester (CFSE), a fluorescent dye that binds to intracellular molecules via covalent bonds.
# Spleens were extracted from 7-week-old C57BL/6 mice, ground, and then separated into single cells using a strainer (40 μm pore size, SPL). Red blood cells were removed using ACK (Ammonium-Chloride-Potassium) lysis buffer to isolate white blood cells.
# Finally, using a MACS Magnetic Stand and LS column, T cells were isolated from the spleen.
# The T cells isolated from the spleen were resuspended in 1 mL of free medium (RPMI-1640+200 U/mL penicillin+200 μg/mL streptomycin), and 0.3 μL of CFSE (10 mM) was added. The mixture was incubated at 37° C. for 5 minutes.
# Free medium (10 mL) was added to stop the reaction, and the cells were centrifuged to obtain the cell pellet.
# RPMI 1640 medium containing 10% FBS, 100 U/mL penicillin, 100 μg/mL streptomycin, and resuspended the cells. The cells were then seeded into a 96-well plate at a density of 2×10^5 cells per well and activated with CD3 and CD28 antibodies (0.5 μg/mL each) to activate T cells.
# The compound diluted in DMSO was added at concentrations of 10 nM, 100 nM, 1 μM, 10 μM, 30 μM, and 50 μM, with three wells per concentration, and cultured at 37° C. and 5% CO2 for three days. The cells were then analyzed using a FACS Canto instrument.
# The proliferation inhibition rate (%) was calculated using the following formula: […]
SMILES,Proliferation inhibition rate (%) (compound 100 nM),Proliferation inhibition rate (%) (compound 1 μM),Proliferation inhibition rate (%) (compound 10 μM),Proliferation inhibition rate (%) (compound 30 μM),Proliferation inhibition rate (%) (compound 50 μM),further results
"CC(C)N1CCN(CCCCCCCCCCCCNC(=O)c2cccnc2N)CC1 [Compound 104, 2-Amino-N-(12-(4-isopropylpiperazin-1-yl)dodecyl) nicotinamide]",100.00,100.00,100.00,100.00,100.00,Proliferation inhibition rate (%) (compound 10 nM): 100.00%
"Nc1ncccc1C(=O)NCCCCCCCCCCCCN1CCC(O)CC1 [Compound 48, 2-Amino-N-(12-(4-hydroxypiperidin-1-yl)dodecyl) nicotinamide]",100.00,100.00,100.00,100.00,100.00,–
CC1CN(C)C(CCCCCCCCCCCCNc2ccc3cncnc3n2)N1 (stereo not shown) [Compound 43],100.00,100.00,100.00,100.00,100.00,–
"CN(CCCCCCCCCCCCNC(=O)c1cccnc1N)C1CCCCC1 [Compound 34, 2-Amino-N-(12-(cyclohexyl(methyl)amino)dodecyl) nicotinamide]",100.00,100.00,100.00,100.00,100.00,–
"CC(C)(C)OC(=O)NC1CCN(CCCCCCCCCCCCNC(=O)c2cccnc2N)CC1 [Compound 101, tert-Butyl (1-(12-(2-aminonicotinamido)dodecyl)piperidin-4-yl)carbamate]",–,–,–,–,–,"inhibition at 0.01 µM (Mus musculus, T-cell, 72 h, compound 10 nM, read-out: Proliferation inhibition rate (%)): -0.15%; inhibition at 0.1 µM (Mus musculus, T-cell, 72 h, compound 100 nM, read-out: Proliferation inhibition rate (%)): 100%; inhibition at 1 µM (Mus musculus, T-cell, 72 h, compound 1 μM, read-out: Proliferation inhibition rate (%)): 100%; inhibition at 10 µM (Mus musculus, T-cell, 72 h, compound 10 μM, read-out: Proliferation inhibition rate (%)): 100%; inhibition at 30 µM (Mus musculus, T-cell, 72 h, compound 30 μM, read-out: Proliferation inhibition rate (%)): 100%; inhibition at 50 µM (Mus musculus, T-cell, 72 h, compound 50 μM, read-out: Proliferation inhibition rate (%)): 100%"
"COC1CCN(CCCCCCCCCCCCNC(=O)c2cccnc2N)C1 (stereo not shown) [Compound 126, 2-amino-N-(12-(3-methoxypyrrolidin-1-yl)dodecyl) nicotinamide]",100.00,100.00,100.00,100.00,100.00,"Proliferation inhibition rate (%) (compound 10 nM, listed as K-PB-48, 0.01 µM): 0.00%"
"Nc1ncccc1C(=O)NCCCCCCCCCCCCN1CCN(C=O)CC1 [Compound 97, 2-amino-N-(12-(4-formylpiperazin-1-yl)dodecyl) nicotinamide]",–,100.00,100.00,100.00,100.00,–
"C[C@H]1CNCCN1CCCCCCCCCCCCNC(=O)c1cccnc1N.Cl [Compound 37, (S)-2-Amino-N-(12-(2-methylpiperazin-1-yl)dodecyl) nicotinamide hydrochloride]",–,100.00,100.00,100.00,100.00,–
"Nc1ncccc1C(=O)NCCCCCCCCCCCCN1CCOC1=O [Compound 127, 2-amino-N-(12-(2-oxooxazolidin-3-yl)dodecyl) nicotinamide]",–,–,100.00,100.00,100.00,–
"COC1CCN(CCCCCCCCCCCCNC(=O)c2cccnc2N)C1 (stereo not shown) [Compound 32, 2-Amino-N-(12-(3-methoxypyrrolidin-1-yl)dodecyl) nicotinamide]",–,–,–,–,–,"Proliferation inhibition rate (%) (compound 10 nM, listed as PBK-2024-024, 0.01 µM): 0.29%"
"Nc1ncccc1C(=O)NCCCCCCCCCCCCN1CC=CC1 [Compound 129, 2-amino-N-(12-(2,5-dihydro-1H-pyrrol-1-yl)dodecyl) nicotinamide]",90.00,100.00,100.00,100.00,100.00,Proliferation inhibition rate (%) (compound 10 nM): 0.00%
"CC1CCCN(CCCCCCCCCCCCNC(=O)c2cccnc2N)CC1 (stereo not shown) [Compound 39, 2-Amino-N-(12-(4-methylazepan-1-yl)dodecyl) nicotinamide]",100.00,100.00,100.00,100.00,100.00,–
"CN1CCN(CCCCCCCCCCCCNC(=O)c2cccnc2F)CC1 [Compound 121, 2-fluoro-N-(12-(4-methylpiperazin-1-yl)dodecyl) nicotinamide]",0.00,0.00,30.00,100.00,100.00,Proliferation inhibition rate (%) (compound 10 nM): 0.00%
"COC1CCN(CCCCCCCCCCCCNC(=O)c2cccnc2N)CC1 [Compound 94, 2-amino-N-(12-(4-methoxypiperidin-1-yl)dodecyl) nicotinamide]",100.00,100.00,100.00,100.00,100.00,–
"Nc1ncccc1C(=O)NCCCCCCCCCCCCN1CCN(CCO)CC1 [Compound 54, 2-Amino-N-(12-(4-(2-hydroxyethyl)piperazin-1-yl)dodecyl) nicotinamide]",100.00,100.00,100.00,100.00,100.00,–
"CC1CN(CCCCCCCCCCCCNC(=O)c2cccnc2N)C(C)CN1.Cl (stereo not shown) [Compound 36, 2-Amino-N-(12-(2,5-dimethylpiperazin-1-yl)dodecyl) nicotinamide hydrochloride]",100.00,100.00,100.00,100.00,100.00,–
"Nc1ncccc1C(=O)NCCCCCCCCCCCCNC1CCOC1 (stereo not shown) [Compound 128, 2-amino-N-(12-((tetrahydrofuran-3-yl)amino)dodecyl) nicotinamide]",100.00,100.00,100.00,100.00,100.00,–
"Cl.O=C(NCCCCCCCCCCCCN1CCNCC1)c1ccc(-c2ccccc2)o1 [Compound 90, 5-Phenyl-N-(12-(piperazin-1-yl)dodecyl) furan-2-carboxamide Hydrochloride]",–,–,100.00,100.00,100.00,–
"Nc1ncccc1C(=O)NCCCCCCCCCCCCN1CCc2ccccc2C1 [Compound 17, 2-Amino-N-(12-(3,4-dihydroisoquinolin-2(1H)-yl)dodecyl) nicotinamide]",–,–,–,–,–,"Proliferation inhibition rate (%) (compound 10 nM, listed as PBK-2024-004, 0.01 µM): 0.00%; Proliferation inhibition rate (%) (compound 100 nM, listed as PBK-2024-004, 0.1 µM): −14.00%; Proliferation inhibition rate (%) (compound 1 μM, listed as PBK-2024-004, 1 µM): 100.00%; Proliferation inhibition rate (%) (compound 10 μM, listed as PBK-2024-004, 10 µM): 100.00%"
"CN(CCCCCCCCCCCCNC(=O)c1cccnc1N)C(C)(C)C [Compound 53, 2-Amino-N-(12-(tert-butyl(methyl)amino)dodecyl) nicotinamide]",100.00,100.00,100.00,100.00,100.00,–
"Nc1ncccc1C(=O)NCCCCCCCCCCCCN1CC(F)(F)C1 [Compound 122, 2-Amino-N-(12-(3,3-difluoroazetidin-1-yl)dodecyl) nicotinamide]",0.00,80.00,100.00,100.00,100.00,Proliferation inhibition rate (%) (compound 10 nM): 0.00%

# Reference: patent US20260184700A1, “PDK1 REGULATORY COMPOUND AND COMPOSITION CONTAINING THE SAME” (PROVIBIO CO., LTD., priority 2024, published 2026)
